Reference: PubChem BioAssay (NCI)
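Dose response: 5 concentrations. Exposure: 48 h. Format: 96-well plates. Endpoint: linear interpolation; highest concentration if not reached. GI50 is the concentration that inhibits growth by half. TGI is the concentration that stops growth completely.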

Key:
Assay in all cases: NCI-60 cell line screen, 48 h
[1] = tested on: MDA-N
[2] = tested on: CAKI-1 renal
[3] = tested on: KM12 colon
[4] = tested on: ACHN renal
[5] = tested on: DU-145 prostate
[6] = tested on: NCI-H522 lung
[7] = tested on: LOX IMVI melanoma
[8] = tested on: OVCAR-5 ovarian
[9] = tested on: HS 578T breast
[10] = tested on: EKVX NSCLC
[11] = tested on: NCI-H226 lung
[12] = tested on: NCI-H460 lung
[13] = tested on: HT29 colon
[14] = tested on: U251 CNS
[15] = tested on: PC-3 prostate
[16] = tested on: T-47D breast
[17] = tested on: SW-620 colon
[18] = tested on: NCI-H23 lung
[19] = tested on: HL-60(TB) leukemia
[20] = tested on: SK-OV-3 ovarian
[21] = tested on: HOP-92 NSCLC
[22] = tested on: SK-MEL-5 melanoma
[23] = tested on: MALME-3M melanoma
[24] = tested on: SK-MEL-28 melanoma
[25] = tested on: HCC-2998 colon
[26] = tested on: MDA-MB-435
[27] = tested on: MDA-MB-231 breast
[28] = tested on: MCF7 breast
[29] = tested on: 786-0 renal
[30] = tested on: RPMI-8226 leukemia
[31] = tested on: OVCAR-3 ovarian
[32] = tested on: OVCAR-8 ovarian
[33] = tested on: HCT-15 colon
[34] = tested on: HCT-116 colon
[35] = tested on: IGROV1 ovarian
[36] = tested on: UO-31 renal
[37] = tested on: SF-268 CNS
[38] = tested on: K-562 leukemia
[39] = tested on: SF-295 CNS
[40] = tested on: BT-549 breast
[41] = tested on: SN12C renal
[42] = tested on: A498 renal
[43] = tested on: M14 melanoma
[44] = tested on: CCRF-CEM leukemia
[45] = tested on: UACC-257 melanoma
[46] = tested on: OVCAR-4 ovarian
[47] = tested on: COLO 205 colon
[48] = tested on: SNB-19 CNS
[49] = tested on: NCI/ADR-RES ovarian
[50] = tested on: TK-10 renal
[51] = tested on: SF-539 CNS
[52] = tested on: UACC-62 melanoma
[53] = tested on: A549 NSCLC

CN(C)CC[PH+](c1ccccc1)c1ccccc1.CN(C)CC[PH+](c1ccccc1)c1ccccc1.[Cl-].[Pd+2] was tested, and the GI50 [1] was > 100 µM, the TGI [1] was > 100 µM and the GI50 [2] was > 100 µM. For the same compound, the TGI [2] was > 100 µM, the GI50 [3] was > 100 µM and the TGI [3] was > 100 µM. The GI50 [4] was > 100 µM, the TGI [4] was > 100 µM and the GI50 [5] was > 100 µM. The TGI [5] was > 100 µM, the GI50 [6] was 73.6 µM and the TGI [6] was > 100 µM. For the same compound, the GI50 [7] was > 100 µM, the TGI [7] was > 100 µM and the GI50 [8] was > 100 µM. The TGI [8] was > 100 µM, the GI50 [9] was > 100 µM and the TGI [9] was > 100 µM. For the same compound, the GI50 [10] was > 100 µM, the TGI [10] was > 100 µM and the GI50 [11] was > 100 µM. For the same compound, the TGI [11] was > 100 µM, the GI50 [12] was > 100 µM and the TGI [12] was > 100 µM. For the same compound, the GI50 [13] was > 100 µM, the TGI [13] was > 100 µM and the GI50 [14] was > 100 µM. For the same compound, the TGI [14] was > 100 µM, the GI50 [15] was > 100 µM and the TGI [15] was > 100 µM. For the same compound, the GI50 [16] was > 100 µM, the TGI [16] was > 100 µM and the GI50 [17] was > 100 µM. The TGI [17] was > 100 µM, the GI50 [18] was > 100 µM and the TGI [18] was > 100 µM. The GI50 [19] was > 100 µM, the TGI [19] was > 100 µM and the GI50 [20] was > 100 µM. For the same compound, the TGI [20] was > 100 µM, the GI50 [21] was > 100 µM and the TGI [21] was > 100 µM. For the same compound, the GI50 [22] was > 100 µM, the TGI [22] was > 100 µM and the GI50 [23] was > 100 µM. For the same compound, the TGI [23] was > 100 µM, the GI50 [24] was > 100 µM and the TGI [24] was > 100 µM. The GI50 [25] was > 100 µM, the TGI [25] was > 100 µM and the GI50 [26] was > 100 µM. The TGI [26] was > 100 µM, the GI50 [27] was > 100 µM and the TGI [27] was > 100 µM. The GI50 [28] was > 100 µM, the TGI [28] was > 100 µM and the GI50 [29] was > 100 µM. The TGI [29] was > 100 µM, the GI50 [30] was 99.8 µM and the TGI [30] was > 100 µM. The GI50 [31] was > 100 µM, the TGI [31] was > 100 µM and the GI50 [32] was > 100 µM. For the same compound, the TGI [32] was > 100 µM, the GI50 [33] was > 100 µM and the TGI [33] was > 100 µM. The GI50 [34] was > 100 µM, the TGI [34] was > 100 µM and the GI50 [35] was > 100 µM. The TGI [35] was > 100 µM, the GI50 [36] was > 100 µM and the TGI [36] was > 100 µM. For the same compound, the GI50 [37] was > 100 µM, the TGI [37] was > 100 µM and the GI50 [38] was 27.8 µM. For the same compound, the TGI [38] was > 100 µM, the GI50 [39] was > 100 µM and the TGI [39] was > 100 µM. The GI50 [40] was > 100 µM, the TGI [40] was > 100 µM and the GI50 [41] was > 100 µM. For the same compound, the TGI [41] was > 100 µM, the GI50 [42] was > 100 µM and the TGI [42] was > 100 µM. The GI50 [43] was > 100 µM, the TGI [43] was > 100 µM and the GI50 [44] was 23.9 µM. The TGI [44] was > 100 µM, the GI50 [45] was > 100 µM and the TGI [45] was > 100 µM. For the same compound, the GI50 [46] was > 100 µM, the TGI [46] was > 100 µM and the GI50 [47] was 80.2 µM. For the same compound, the TGI [47] was > 100 µM, the GI50 [48] was > 100 µM and the TGI [48] was > 100 µM. The GI50 [49] was > 100 µM, the TGI [49] was > 100 µM and the GI50 [50] was > 100 µM. The TGI [50] was > 100 µM, the GI50 [51] was > 100 µM and the TGI [51] was > 100 µM. For the same compound, the GI50 [52] was > 100 µM, the TGI [52] was > 100 µM and the GI50 [53] was > 100 µM. The TGI [53] was > 100 µM.
